Results published in ChEMBL document CHEMBL1201862, “PubChem BioAssay data set” (2004).
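Test compounds were applied to cells in 96-well plates for 48 hours at 5 doses. The concentration for 50% growth inhibition is given as GI50.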 Activity calls are given as the source filed them. Cut-off read from the data, not from the text of the source: active = GI50 up to about 1.1 µM and inactive = higher.

Tests used:
Experiment in all cases: inhibition of tumour cell growth, NCI panel, 48 h
HT-29 = test system: HT-29
OVCAR-8 = test system: OVCAR-8
SK-MEL-5 = test system: SK-MEL-5
IGROV-1 = test system: IGROV-1
OVCAR-3 = test system: OVCAR-3
HCT-15 = test system: HCT-15
CAKI-1 = test system: CAKI-1
A549 = test system: A549
RXF 393 = test system: RXF 393
HOP-62 = test system: HOP-62
NCI-H522 = test system: NCI-H522
XF498 = test system: XF498
A498 = test system: A498
SK-MEL-2 = test system: SK-MEL-2
U-251 = test system: U-251
SK-MEL-28 = test system: SK-MEL-28
Malme-3M = test system: Malme-3M
UACC-257 = test system: UACC-257
MOLT-4 = test system: MOLT-4
SNB-19 = test system: SNB-19
SK-OV-3 = test system: SK-OV-3
HL-60 = test system: HL-60
SW-620 = test system: SW-620
HOP-18 = test system: HOP-18
HCT-116 = test system: HCT-116
UO-31 = test system: UO-31
OVCAR-4 = test system: OVCAR-4
LOX IMVI = test system: LOX IMVI
ACHN = test system: ACHN
M19-MEL = test system: M19-MEL
UACC-62 = test system: UACC-62
SR = test system: SR
NCI-H460 = test system: NCI-H460
EKVX = test system: EKVX
K562 = test system: K562
RXF 631 = test system: RXF 631
TK-10 = test system: TK-10
SF-268 = test system: SF-268
RPMI-8226 = test system: RPMI-8226
M14 = test system: M14
KM12 = test system: KM12
SNB-75 = test system: SNB-75
NCI-H23 = test system: NCI-H23
CCRF-CEM = test system: CCRF-CEM
786-0 = test system: 786-0
SF-295 = test system: SF-295
SN12C = test system: SN12C
HOP-92 = test system: HOP-92
COLO 205 = test system: COLO 205
OVCAR-5 = test system: OVCAR-5
LXFL 529 = test system: LXFL 529
DLD-1 = test system: DLD-1
DMS-114 = test system: DMS-114
SNB-78 = test system: SNB-78
SF-539 = test system: SF-539
DMS-273 = test system: DMS-273
HCC 2998 = test system: HCC 2998
KM-20L2 = test system: KM-20L2

Question: What does the source list for `O=C(c1ccccc1)n1cc(/C=C/[N+](=O)[O-])c2ccccc21`?
Answer: GI50 (HT-29): 44.2 µM (inactive); GI50 (OVCAR-8): 35.6 µM (inactive); GI50 (SK-MEL-5): 34.8 µM (inactive); GI50 (IGROV-1): 22.6 µM (inactive); GI50 (OVCAR-3): 51.8 µM (inactive); GI50 (HCT-15): 19.5 µM; GI50 (CAKI-1): 84.9 µM (inactive); GI50 (A549): 85.1 µM (inactive); GI50 (RXF 393): 20.5 µM (inactive); GI50 (HOP-62): > 100 µM (inactive); GI50 (NCI-H522): 15.1 µM (inactive); GI50 (XF498): 29.8 µM (inactive); GI50 (A498): > 100 µM (inactive); GI50 (SK-MEL-2): 19.9 µM (inactive); GI50 (U-251): 18.5 µM (inactive); GI50 (SK-MEL-28): 18.5 µM (inactive); GI50 (Malme-3M): 32.2 µM (inactive); GI50 (UACC-257): 21.2 µM (inactive); GI50 (MOLT-4): 17.2 µM (inactive); GI50 (SNB-19): 30.7 µM (inactive); GI50 (SK-OV-3): > 100 µM (inactive); GI50 (HL-60): 3.24 µM (inactive); GI50 (SW-620): 19.6 µM (inactive); GI50 (HOP-18): > 100 µM (inactive); GI50 (HCT-116): 17.9 µM (inactive); GI50 (UO-31): 20.1 µM (inactive); GI50 (OVCAR-4): 27 µM (inactive); GI50 (LOX IMVI): 15.2 µM (inactive); GI50 (ACHN): > 100 µM (inactive); GI50 (M19-MEL): 20.8 µM (inactive); GI50 (UACC-62): 20.1 µM (inactive); GI50 (SR): 19.7 µM (inactive); GI50 (NCI-H460): 21.9 µM (inactive); GI50 (EKVX): > 100 µM (inactive); GI50 (K562): 19.7 µM (inactive); GI50 (RXF 631): 17.3 µM (inactive); GI50 (TK-10): > 100 µM (inactive); GI50 (SF-268): 23.1 µM (inactive); GI50 (RPMI-8226): 15.7 µM (inactive); GI50 (M14): 20.8 µM (inactive); GI50 (KM12): 18.5 µM (inactive); GI50 (SNB-75): 32.7 µM (inactive); GI50 (NCI-H23): 20.1 µM (inactive); GI50 (CCRF-CEM): 13.4 µM (inactive); GI50 (786-0): 20.2 µM (inactive); GI50 (SF-295): 42 µM (inactive); GI50 (SN12C): 39.2 µM (inactive); GI50 (HOP-92): 23.8 µM (inactive); GI50 (COLO 205): 24.7 µM (inactive); GI50 (OVCAR-5): > 100 µM (inactive); GI50 (LXFL 529): 18.5 µM (inactive); GI50 (DLD-1): 18.4 µM (inactive); GI50 (DMS-114): 21.8 µM (inactive); GI50 (SNB-78): 30.9 µM (inactive); GI50 (SF-539): 21.4 µM (inactive); GI50 (DMS-273): 25.1 µM (inactive)

Question: How did the GI50 (HT-29) turn out when `O=C(/N=N/C(=O)OCc1ccccc1)OCc1ccccc1` was run?
Answer: > 100 µM (inactive)

Question: What about the GI50 (OVCAR-8) of the same compound?
Answer: > 100 µM (inactive)

Question: And the GI50 (SK-MEL-5)?
Answer: > 100 µM (inactive)

Question: And the GI50 (IGROV-1)?
Answer: > 100 µM (inactive)

Question: What about the GI50 (OVCAR-3) of the same compound?
Answer: 58.2 µM (inactive)

Question: What about the GI50 (HCT-15) of the same compound?
Answer: 94.2 µM

Question: And the GI50 (CAKI-1)?
Answer: 49.8 µM (inactive)

Question: And the GI50 (A549)?
Answer: 81.3 µM (inactive)

Question: What about the GI50 (RXF 393) of the same compound?
Answer: > 100 µM (inactive)

Question: What about the GI50 (HOP-62) of the same compound?
Answer: > 100 µM (inactive)

Question: What about the GI50 (XF498) of the same compound?
Answer: > 100 µM (inactive)

Question: And the GI50 (SK-MEL-2)?
Answer: > 100 µM (inactive)

Question: What about the GI50 (U-251) of the same compound?
Answer: 83.8 µM (inactive)

Question: And the GI50 (Malme-3M)?
Answer: > 100 µM (inactive)

Question: And the GI50 (UACC-257)?
Answer: > 100 µM (inactive)

Question: What about the GI50 (MOLT-4) of the same compound?
Answer: 31.9 µM (inactive)

Question: What about the GI50 (SNB-19) of the same compound?
Answer: 64.9 µM (inactive)

Question: And the GI50 (SK-OV-3)?
Answer: > 100 µM (inactive)

Question: And the GI50 (HL-60)?
Answer: 43.7 µM (inactive)

Question: And the GI50 (SW-620)?
Answer: > 100 µM (inactive)

Question: What about the GI50 (HOP-18) of the same compound?
Answer: > 100 µM (inactive)

Question: And the GI50 (HCT-116)?
Answer: > 100 µM (inactive)

Question: And the GI50 (UO-31)?
Answer: 31.6 µM (inactive)

Question: And the GI50 (OVCAR-4)?
Answer: 66.1 µM (inactive)

Question: What about the GI50 (LOX IMVI) of the same compound?
Answer: > 100 µM (inactive)

Question: What about the GI50 (ACHN) of the same compound?
Answer: 76.4 µM (inactive)

Question: What about the GI50 (M19-MEL) of the same compound?
Answer: > 100 µM (inactive)

Question: What about the GI50 (UACC-62) of the same compound?
Answer: > 100 µM (inactive)

Question: What about the GI50 (NCI-H460) of the same compound?
Answer: > 100 µM (inactive)

Question: What about the GI50 (EKVX) of the same compound?
Answer: > 100 µM (inactive)

Question: What about the GI50 (K562) of the same compound?
Answer: 63.5 µM (inactive)

Question: And the GI50 (RXF 631)?
Answer: > 100 µM (inactive)

Question: What about the GI50 (TK-10) of the same compound?
Answer: > 100 µM (inactive)

Question: And the GI50 (SF-268)?
Answer: 96.4 µM (inactive)

Question: And the GI50 (RPMI-8226)?
Answer: 53.2 µM (inactive)

Question: And the GI50 (M14)?
Answer: > 100 µM (inactive)

Question: What about the GI50 (KM12) of the same compound?
Answer: 88.3 µM (inactive)

Question: What about the GI50 (SNB-75) of the same compound?
Answer: 42.1 µM (inactive)

Question: And the GI50 (NCI-H23)?
Answer: 99.8 µM (inactive)

Question: What about the GI50 (CCRF-CEM) of the same compound?
Answer: 84.1 µM (inactive)

Question: And the GI50 (786-0)?
Answer: > 100 µM (inactive)

Question: What about the GI50 (SF-295) of the same compound?
Answer: 35 µM (inactive)

Question: What about the GI50 (SN12C) of the same compound?
Answer: > 100 µM (inactive)

Question: What about the GI50 (HOP-92) of the same compound?
Answer: 10.4 µM (inactive)

Question: What about the GI50 (COLO 205) of the same compound?
Answer: > 100 µM (inactive)

Question: What about the GI50 (OVCAR-5) of the same compound?
Answer: > 100 µM (inactive)

Question: What about the GI50 (LXFL 529) of the same compound?
Answer: 68.2 µM (inactive)

Question: And the GI50 (DMS-114)?
Answer: 34.4 µM (inactive)

Question: And the GI50 (HCC 2998)?
Answer: > 100 µM (inactive)

Question: What about the GI50 (SNB-78) of the same compound?
Answer: > 100 µM (inactive)

Question: And the GI50 (SF-539)?
Answer: > 100 µM (inactive)

Question: And the GI50 (DMS-273)?
Answer: 91.6 µM (inactive)

Question: What about the GI50 (KM-20L2) of the same compound?
Answer: > 100 µM (inactive)
